In US20110230471A1, “BENZONAPHTYRIDINE COMPOUNDS AS INHIBITORS OF AUTOTAXIN” (MERCK PATENT GESELLSCHAFT MIT BESCHRANKTER HAFTUNG, priority 2008, published 2011) one finds IC50 data, which are given here for 25 compounds.

A value given as a limit tells only on which side of the number the result lay.

In this assay the target is T1, recombinant autotaxin (Homo sapiens, UniProt Q13822).
T1 construct: made in house; host or cells: Hi5 insect cells (baculovirus)
Nature of the assay: Autotaxin test (enzyme test), Amplex Red. To be noted: Autotaxin inhibition (enzyme test), TABLE 1 (A compounds); substrate LPC 75 μM. The class given is biochemical. Here is the method: The autotaxin activity is measured indirectly using Amplex Red reagent. Amplex Red is measured here as fluorogenic indicator for the H2O2 formed. In detail, autotaxin converts the substrate lysophosphatidylcholine (LPC) into phosphocholine and lysophosphatidylic acid (LPA). After this reaction, the phosphocholine is reacted with alkaline phosphatase to give inorganic phosphate and choline. In the next step, choline is oxidised by choline oxidase to give betaine, with formation of H2O2. H2O2 reacts with Amplex Red reagent in the presence of peroxidase (horseradish peroxidase) in a 1:1 stoichiometry and forms the highly fluorescent resorufin. The fluorescence is measured in a reaction-dependent kinetic mode in order that fluorescent signals from possible other fluorescent substances which are not involved in the reaction can be corrected out.
1.5 μl of a standard solution or of the test substances (substances with the name A(n))in individual concentrations dissolved in 20 mM Hepes pH 7.2 with a maximum of 7.7% of DMSO are pre-incubated together with 10 μl (16 ng) of highly purified recombinant autotaxin in a black microtitre plate provided with 384 wells at 22° C. for 30 min. The reaction is then initiated by addition of 5 μl of L-α-lysophosphatidylcholine (LPC), where the final concentration of LPC is 75 μM. The mixture is incubated at 37° C. for 90 min. After the incubation, Amplex Red reagent, peroxidase (horseradish peroxidase) and choline oxidase is added, and the fluorescence is immediately measured at 612 nm with excitation of 485 nm in a “Tecan Ultra multimode” reader. The activity of autotaxin is calculated indirectly via detection of the H2O2 formed.
• Microtitre plate: PS microplate, 384 wells, small volume, black Corning, Cat#3677 • Protein: recombinant autotaxin (Baculovirale Hi5 Expression) • Substrate: L-α-lysophosphatidylcholine (chicken egg)); Avanti Polar Lipids # 830071 P • Standard: C14 LPA, Avanti Polar Lipids, Cat# 857120P • Detection reagent: Amplex Red reagent; Invitrogen # A12222; dissolved in 1.923 ml of DMSO peroxidase type VI-A (horseradish) from Sigma # P6782; dissolved in 7.45 ml of test buffer, choline oxidase; Sigma # C5896; dissolved in 2.47 ml of test buffer • Detection reagent mix: 1:100 dilution of Amplex Red reagent in test buffer • Test buffer: 200 mM Tris HCl, Merck, Cat # 1.08219, pH 7.9, 0.1% of BSA, lipid-free, Roche Cat#775835
As to `COc1ccc(Cl)cc1NC(=O)CN1CCc2nc3ccccc3c(C(=O)N3CCN(C)CC3)c2C1` [Compound A1, N-(5-chloro-2-methoxyphenyl)-2-[10-(4-methylpiperazine-1-carbonyl)-3,4-dihydro-1H-benzo[b][1,6]naphthyridin-2-yl]acetamide], the IC50 is below 100 nM.

For the compound `COc1ccc(Cl)cc1NC(=O)CN1CCc2nc3ccccc3c(C(=O)N3CCOCC3)c2C1` [Compound A7, N-(5-chloro-2-methoxyphenyl)-2-[10-(morpholine-4-carbonyl)-3,4-dihydro-1H-benzo[b][1,6]naphthyridin-2-yl]acetamide], the half-maximal inhibitory concentration (IC50) is below 100 nM.

As for `O=C(CN1CCc2nc3ccccc3c(C(=O)N3CCOCC3)c2C1)Nc1cccc(Cl)c1` [Compound A9, N-(3-Chlorophenyl)-2-[10-(morpholine-4-carbonyl)-3,4-dihydro-1H-benzo-[b][1,6]naphthyridin-2-yl]acetamide], the IC50 was above 1000 nM.

In the case of `COc1ccccc1NC(=O)CN1CCc2nc3ccccc3c(C(=O)N3CCOCC3)c2C1` [Compound A10, N-(2-Methoxyphenyl)-2-[10-(morpholine-4-carbonyl)-3,4-dihydro-1H-benzo-[b][1,6]naphthyridin-2-yl]acetamide], the IC50 is above 1000 nM.

As to `Cc1ccc(Cl)cc1NC(=O)CN1CCc2nc3ccccc3c(C(=O)N3CCOCC3)c2C1` [Compound A11, N-(5-Chloro-2-methylphenyl)-2-[10-(morpholine-4-carbonyl)-3,4-dihydro-1H-benzo[b][1,6]naphthyridin-2-yl]acetamide], the IC50 is above 1000 nM.

Regarding `COc1ccc(C)cc1NC(=O)CN1CCc2nc3ccccc3c(C(=O)N3CCOCC3)c2C1` [Compound A12, N-(2-Methoxy-5-methylphenyl)-2-[10-(morpholine-4-carbonyl)-3,4-dihydro-1H-benzo[b][1,6]naphthyridin-2-yl]acetamide], the IC50 is 100 to 1000 nM.

As for `COc1ccc(Br)cc1NC(=O)CN1CCc2nc3ccccc3c(C(=O)N3CCOCC3)c2C1` [Compound A13, N-(5-Bromo-2-methoxyphenyl)-2-[10-(morpholine-4-carbonyl)-3,4-dihydro-1H-benzo[b][1,6]naphthyridin-2-yl]acetamide], the IC50 is below 100 nM.

Consider `COc1ccc(-c2ccccc2)cc1NC(=O)CN1CCc2nc3ccccc3c(C(=O)N3CCOCC3)c2C1` [Compound A14, N-(4-Methoxybiphenyl-3-yl)-2-[10-(morpholine-4-carbonyl)-3,4-dihydro-1H-benzo[b][1,6]naphthyridin-2-yl]acetamide], for which the IC50 was in the range of 100 to 1000 nM.

`COc1ccc(Cl)cc1NC(=O)CN1CCc2nc3cc(Cl)ccc3c(C(=O)N3CCOCC3)c2C1` [Compound A15, N-(5-Chloro-2-methoxyphenyl)-2-[7-chloro-10-(morpholine-4-carbonyl)-3,4-dihydro-1H-benzo[b][1,6]naphthyridin-2-yl]acetamide]: the half-inhibitory concentration (IC50) was 100 to 1000 nM.

For the compound `COc1ccc(Cl)cc1NC(=O)CN1CCc2nc3c(Cl)cccc3c(C(=O)N3CCOCC3)c2C1` [Compound A16, N-(5-Chloro-2-methoxyphenyl)-2-[6-chloro-10-(morpholine-4-carbonyl)-3,4-dihydro-1H-benzo[b][1,6]naphthyridin-2-yl]acetamide], the IC50 is 100 to 1000 nM.

Regarding `CCc1ccc2c(C(=O)N3CCOCC3)c3c(nc2c1)CCN(CC(=O)Nc1cc(Cl)ccc1OC)C3` [Compound A17, N-(5-Chloro-2-methoxyphenyl)-2-[7-ethyl-10-(morpholine-4-carbonyl)-3,4-dihydro-1H-benzo[b][1,6]naphthyridin-2-yl]acetamide], the IC50 was in the range of 100 to 1000 nM.

For `CCN1CCN(C(=O)c2c3c(nc4ccccc24)CCN(CC(=O)Nc2cc(Cl)ccc2OC)C3)CC1` [Compound A23, N-(5-Chloro-2-methoxyphenyl)-2-[10-(4-ethylpiperazine-1-carbonyl)-3,4-dihydro-1H-benzo[b][1,6]naphthyridin-2-yl]acetamide], the IC50 was below 100 nM.

With `COc1ccc(Cl)cc1NC(=O)CN1CCc2nc3ccccc3c(C(=O)N3CCN(C(=O)OCc4ccccc4)CC3)c2C1` [Compound A25, 4-{2-[(5-Chloro-2-methoxyphenylcarbamoyl)methyl]-1,2,3,4-tetrahydrobenzo[b][1,6]naphthyridine-10-carbonyl}piperazine-1-carboxylic acid benzyl ester], the half-inhibitory concentration (IC50) lay within 100 to 1000 nM.

Turning to `COc1ccc(Cl)cc1NC(=O)CN1CCc2nc3ccccc3c(C(=O)N3CCCN(Cc4ccccc4)CC3)c2C1` [Compound A26, 2-[10-(4-Benzyl-1,4-diazepan-1-carbonyl)-3,4-dihydro-1H-benzo[b][1,6]-naphthyridin-2-yl]-N-(5-chloro-2-methoxyphenyl)acetamide], the concentration for half-maximal inhibition (IC50) lay in the range of 100 to 1000 nM.

For `COc1ccc(Cl)cc1NC(=O)CN1CCc2nc3ccccc3c(C(=O)N3CCNCC3)c2C1` [Compound A27, N-(5-chloro-2-methoxyphenyl)-2-[10-(piperazine-1-carbonyl)-3,4-dihydro-1H-benzo[b][1,6]naphthyridin-2-yl]acetamide], the IC50 lay in the range of 100 to 1000 nM.

Regarding `COc1ccc(Cl)cc1NC(=O)CN1CCc2nc3ccccc3c(C(=O)N3CCN(C4CCCC4)CC3)c2C1` [Compound A28, N-(5-Chloro-2-methoxyphenyl)-2-[10-(4-cyclopentylpiperazine-1-carbonyl)-3,4-dihydro-1H-benzo[b][1,6]naphthyridin-2-yl]acetamide], the IC50 is 100 to 1000 nM.

With `CCCN1CCN(C(=O)c2c3c(nc4ccccc24)CCN(CC(=O)Nc2cc(Cl)ccc2OC)C3)CC1` [Compound A29, N-(5-Chloro-2-methoxyphenyl)-2-[10-(4-propylpiperazine-1-carbonyl)-3,4-dihydro-1H-benzo[b][1,6]naphthyridin-2-yl]acetamide], the half-inhibitory concentration (IC50) is below 100 nM.

With `COc1ccc(Cl)cc1NC(=O)CN1CCc2nc3ccccc3c(C(=O)N3CCN(Cc4ccccc4)CC3)c2C1` [Compound A30, 2-[10-(4-Benzylpiperazine-1-carbonyl)-3,4-dihydro-1H-benzo[b][1,6]naphthyridin-2-yl]-N-(5-chloro-2-methoxyphenyl)acetamide], the IC50 was 100 to 1000 nM.

On to `CN1CCN(C(=O)c2c3c(nc4ccccc24)CCN(C(=O)CCc2ccc(Cl)cc2Cl)C3)CC1` [Compound A31, 3-(2,4-dichlorophenyl)-1-[10-(4-methylpiperazine-1-carbonyl)-3,4-dihydro-1H-benzo[b][1,6]naphthyridin-2-yl]propan-1-one], for which the IC50 was above 1000 nM.

For the compound `CN1CCN(C(=O)c2c3c(nc4ccccc24)CCN(C(=O)CCc2ccc(Cl)cc2F)C3)CC1` [Compound A33, 3-(4-Chloro-2-fluorophenyl)-1-[10-(4-methylpiperazine-1-carbonyl)-3,4-dihydro-1H-benzo[b][1,6]naphthyridin-2-yl]propan-1-one], the IC50 is above 1000 nM.

`COc1ccc(Cl)cc1NC(=O)CN1CCc2nc3c(Br)cccc3c(C(=O)N3CCOCC3)c2C1` [Compound A40, 2-[6-Bromo-10-(morpholine-4-carbonyl)-3,4-dihydro-1H-benzo[b][1,6]naphthyridin-2-yl]-N-(5-chloro-2-methoxyphenyl)acetamide]: the IC50 was in the range of 100 to 1000 nM.

With `CCOc1ccc(Cl)cc1NC(=O)CN1CCc2nc3ccccc3c(C(=O)N3CCOCC3)c2C1` [Compound A41, N-(5-Chloro-2-ethoxyphenyl)-2-[10-(morpholine-4-carbonyl)-3,4-dihydro-1H-benzo[b][1,6]naphthyridin-2-yl]acetamide], the 50% inhibitory concentration (IC50) is above 1000 nM.

`COc1ccc(Cl)cc1NC(=O)CN1CCc2nc3cc(Br)ccc3c(C(=O)N3CCOCC3)c2C1` [Compound A42, 2-[7-Bromo-10-(morpholine-4-carbonyl)-3,4-dihydro-1H-benzo[b][1,6]-naphthyridin-2-yl]-N-(5-chloro-2-methoxyphenyl)acetamide]: the IC50 is 100 to 1000 nM.

For the compound `O=C(CN1CCc2nc3ccccc3c(C(=O)N3CCOCC3)c2C1)Nc1cc(Br)cc2ccoc12` [Compound A43, N-(5-Bromobenzofuran-7-yl)-2-[10-(morpholine-4-carbonyl)-3,4-dihydro-1H-benzo[b][1,6]naphthyridin-2-yl]acetamide], the IC50 is 100 to 1000 nM.

In the case of `O=C(CN1CCc2nc3ccccc3c(C(=O)N3CCOCC3)c2C1)Nc1cccc2ccoc12` [Compound A45, N-Benzofuran-7-yl-2-[10-(morpholine-4-carbonyl)-3,4-dihydro-1H-benzo-[b][1,6]naphthyridin-2-yl]acetamide], the 50% inhibitory concentration (IC50) was above 1000 nM.
